Patent US4122184A, “Benzimidazole insecticides” (priority 1977, dated 1978)
“And” between values parts separate entries of the source, which are not always exact repeats. Equal entries are not always repeated.

Columns and labels:
Two-spotted Spider Mite = Two-spotted Spider Mite test; type: in vivo, Tetranychus urticae (Acarina); conditions: 48 h
Experimental: The procedure in this test is the same as that in the previous aphid test, except that about 100 two-spotted spider mites from a stock colony raised on squash plants are transferred to a cut squash cotyledon. The mortality is estimated 48 hours after spraying. The same rating scale is used.

Oriental Cockroach = test: Oriental Roach Test; type: in vivo, Blatta orientalis (Orthoptera); conditions: 24 h
In short: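 Ten late-instar (3-4 month) nymphs per cage, held at 70°-80° F., sprayed with 5 ml of insecticide formulation at a specified amount. Cockroaches kept unfed and unwatered; mortality counted 24 hours post-spray, with insects staying on the cage bottom after light shaking scored dead.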

Boll Weevil = Boll Weevil Test; type: in vivo, Anthonomus grandis (Coleoptera); conditions: 48 h
Text: The procedure is identical to that employed for the Mexican bean beetle and the Southern armyworm, except that 10 adult boll weevils are placed on cotton leaves that have been dipped into formulations of the test compounds. The same rating scale is used.

Alfalfa Weevil Larvae [1] = test: Field trial, stomach poison test; type: in vivo
In short: (§1)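 Treated foliage (dipped, or sprayed at 10 psi, then dried) is offered to counted insects in dishes. Scoring of mortality uses a 0–9 scale at three time points up to 72 h.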

[2] = system: Southern Corn Rootworm Adults; test: Field trial, stomach poison test; type: in vivo; design: key: mortality rating on a 0 to 9 scale
In short: as §1

[3] = system: Striped Cucumber Beetle Adults; test: Field trial, stomach poison test; type: in vivo; design: key: mortality rating on a 0 to 9 scale
In short: as §1

Bean Leaf Beetle = test: Field trial, contact poison test; type: in vivo
In short: (§2)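 Each infested plant sits in a water-filled bottle to prevent wilting, and the test compound is then atomized onto it at 10 psi at various concentrations. Falling dead insects are collected, and mortality is rated 0 (0-10%) to 9 (91-100%) at up to 72 h.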

[4] = system: Red-Legged Grasshopper Adults; test: Field trial, contact poison test; type: in vivo
In short: as §2

[5] = system: Southern Corn Rootworm Adults; test: Field trial, contact poison test; type: in vivo
In short: as §2

Alfalfa Weevil Larvae [6] = test: Field trial, topical application; type: in vivo
Experimental: The results are read at 24, 48, and 72 hours when applicable. The rating scale is 0 to 9 where 0 = 0-10 percent and 9 = 91-100 percent mortality.
In a variation of the above test, 1 microliter of a test solution containing a predetermined number of micrograms of benzimidazole was applied directly to larvae or adult insects.
Using the above methods, field trials were carried out against species of 5 orders of insects. The results, which are summarized in the following tables, give the average mortality for the particular insect with a given benzimidazole for each concentration employed. […] These tables contain all results obtained during the summer trials.

Confused Flour Beetle = test: Field trial (first summer), topical; type: in vivo
In short: (§3)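 Field trial from the first summer in which 1 µl of test solution holding a set number of micrograms of benzimidazole was applied topically to larvae or adult insects. Mortality at a given route and concentration was scored on a 0–9 scale.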

Picnic Beetle = test: Field trial (first summer), topical; type: in vivo; conditions: .078125 μg/μl
In short: as §3

In the case of “mixture of benzyl 2,6-bis(trifluoromethyl)-4-nitro-1-benzimidazolecarboxylate and benzyl 2,5-bis(trifluoromethyl)-7-nitro-1-benzimidazolecarboxylate”, the mortality rating (Two-spotted Spider Mite; 10 ppm) is reported as 8 (81-90), the mortality rating (Two-spotted Spider Mite; 25 ppm) is reported as 7 (71-80) and the mortality rating (Two-spotted Spider Mite; 50 ppm) is reported as 9 (91-100). For the same substance, the mortality rating (Two-spotted Spider Mite; 100 ppm) was 9 (91-100), the mortality rating (Two-spotted Spider Mite; 250 ppm) was 9 (91-100) and the mortality rating (Two-spotted Spider Mite; 500 ppm) was 9 (91-100). For the same substance, the mortality rating (Two-spotted Spider Mite; 1000 ppm) was 9 (91-100), the mortality rating (Oriental Cockroach; 50 ppm) was 1.5 and the mortality rating (Oriental Cockroach; 100 ppm) was 3 (31-40). For the same substance, the mortality rating (Oriental Cockroach; 250 ppm) was “.5”, the mortality rating (Oriental Cockroach; 500 ppm) was 1.5 and the mortality rating (Oriental Cockroach; 1000 ppm) was 9 (91-100). The mortality rating (Boll Weevil; 10 ppm) was 4.5, the mortality rating (Boll Weevil; 25 ppm) was 8.5 and the mortality rating (Boll Weevil; 50 ppm) was 7 (71-80). For the same substance, the mortality rating (Boll Weevil; 100 ppm) was 9 (91-100), the mortality rating (Boll Weevil; 250 ppm) was 9 (91-100) and the mortality rating (Boll Weevil; 500 ppm) was 9 (91-100). The mortality rating (Boll Weevil; 1000 ppm) was 9 (91-100), the average mortality rating (Alfalfa Weevil Larvae [1]; 125 ppm) was 3 and the average mortality rating (Alfalfa Weevil Larvae [1]; 250 ppm) was 5. It also gave an average mortality rating (Alfalfa Weevil Larvae [1]; 500 ppm) of 6, an average mortality rating ([2]; 25 ppm) of 1 and an average mortality rating ([2]; 50 ppm) of 2. It also gave an average mortality rating ([2]; 100 ppm) of 4, an average mortality rating ([3]; 10 ppm) of 4 and an average mortality rating ([3]; 25 ppm) of 4. For the same substance, the average mortality rating ([3]; 50 ppm) was 5, the average mortality rating ([3]; 100 ppm) was 7 and the average mortality rating (Bean Leaf Beetle; 25 ppm) was 0 (0-10 percent). For the same substance, the average mortality rating (Bean Leaf Beetle; 50 ppm) was 2, the average mortality rating (Bean Leaf Beetle; 100 ppm) was 7 and the average mortality rating ([4]; 25 ppm) was 9 (91-100 percent mortality). The average mortality rating ([4]; 50 ppm) was 9 (91-100 percent mortality), the average mortality rating ([5]; 25 ppm) was 4 and the average mortality rating ([5]; 50 ppm) was 4. The average mortality rating ([5]; 100 ppm) was 9 (91-100 percent mortality), the average mortality rating (Alfalfa Weevil Larvae [6]; 0.03 μg/μl) was 2 and the average mortality rating (Alfalfa Weevil Larvae [6]; 0.07 μg/μl) was 1. The average mortality rating (Alfalfa Weevil Larvae [6]; 0.1 μg/μl) was 4, the insect mortality rating (Confused Flour Beetle; .078125 μg/μl) was 9 (91-100 percent mortality) and the insect mortality rating (Picnic Beetle) was 9 (91-100 percent mortality).

In the case of “mixture of phenyl 2,6-bis(trifluoromethyl)-4-nitro-1-benzimidazolecarboxylate and phenyl 2,5-bis(trifluoromethyl)-1-benzimidazolecarboxylate”, the mortality rating (Two-spotted Spider Mite; 10 ppm) is reported as 5.5, the mortality rating (Two-spotted Spider Mite; 25 ppm) is reported as 2 (21-30) and the mortality rating (Two-spotted Spider Mite; 50 ppm) is reported as 8 (81-90). The mortality rating (Two-spotted Spider Mite; 100 ppm) was 9 (91-100), the mortality rating (Two-spotted Spider Mite; 250 ppm) was 9 (91-100) and the mortality rating (Two-spotted Spider Mite; 500 ppm) was 9 (91-100). For the same substance, the mortality rating (Two-spotted Spider Mite; 1000 ppm) was 9 (91-100), the mortality rating (Oriental Cockroach; 50 ppm) was 0 (0-10) and the mortality rating (Oriental Cockroach; 100 ppm) was “.5”. For the same substance, the mortality rating (Oriental Cockroach; 250 ppm) was 7 (71-80), the mortality rating (Oriental Cockroach; 500 ppm) was 6.5 and the mortality rating (Oriental Cockroach; 1000 ppm) was 5 (51-60). For the same substance, the mortality rating (Boll Weevil; 10 ppm) was 1 (11-20), the mortality rating (Boll Weevil; 25 ppm) was 5.5 and the mortality rating (Boll Weevil; 50 ppm) was 8 (81-90). The mortality rating (Boll Weevil; 100 ppm) was 9 (91-100), the mortality rating (Boll Weevil; 250 ppm) was 9 (91-100) and the mortality rating (Boll Weevil; 500 ppm) was 9 (91-100). For the same substance, the mortality rating (Boll Weevil; 1000 ppm) was 9 (91-100), the average mortality rating ([2]; 25 ppm) was 2 and 3 and the average mortality rating ([2]; 50 ppm) was 4 and 2. For the same substance, the average mortality rating ([2]; 100 ppm) was 6 and 8, the average mortality rating ([3]; 10 ppm) was 3 and the average mortality rating ([3]; 25 ppm) was 4. For the same substance, the average mortality rating ([3]; 50 ppm) was 4, the average mortality rating ([3]; 100 ppm) was 7 and the average mortality rating (Bean Leaf Beetle; 25 ppm) was 0 (0-10 percent). For the same substance, the average mortality rating (Bean Leaf Beetle; 50 ppm) was 0 (0-10 percent), the average mortality rating (Bean Leaf Beetle; 100 ppm) was 4 and the average mortality rating ([4]; 25 ppm) was 1. The average mortality rating ([4]; 50 ppm) was 7, the average mortality rating ([5]; 25 ppm) was 0 (0-10 percent) and the average mortality rating ([5]; 50 ppm) was 3. For the same substance, the average mortality rating ([5]; 100 ppm) was 7 and the insect mortality rating (Confused Flour Beetle; .15625 μg/μl) was 9 (91-100 percent mortality).
